SMILES strings stand for the structures.

The assay concerns the target 1,3-beta-glucan synthase (Aspergillus fumigatus, UniProt P87204, S678P). The assay can be described thus: Inhibition of 1,3-beta-D-glucan synthase EMFR-S678P mutant from Aspergillus fumigatus assessed as incorporation of [3H]glucose.

Sequence of 1,3-beta-glucan synthase (P87204 entry or part of it S678P): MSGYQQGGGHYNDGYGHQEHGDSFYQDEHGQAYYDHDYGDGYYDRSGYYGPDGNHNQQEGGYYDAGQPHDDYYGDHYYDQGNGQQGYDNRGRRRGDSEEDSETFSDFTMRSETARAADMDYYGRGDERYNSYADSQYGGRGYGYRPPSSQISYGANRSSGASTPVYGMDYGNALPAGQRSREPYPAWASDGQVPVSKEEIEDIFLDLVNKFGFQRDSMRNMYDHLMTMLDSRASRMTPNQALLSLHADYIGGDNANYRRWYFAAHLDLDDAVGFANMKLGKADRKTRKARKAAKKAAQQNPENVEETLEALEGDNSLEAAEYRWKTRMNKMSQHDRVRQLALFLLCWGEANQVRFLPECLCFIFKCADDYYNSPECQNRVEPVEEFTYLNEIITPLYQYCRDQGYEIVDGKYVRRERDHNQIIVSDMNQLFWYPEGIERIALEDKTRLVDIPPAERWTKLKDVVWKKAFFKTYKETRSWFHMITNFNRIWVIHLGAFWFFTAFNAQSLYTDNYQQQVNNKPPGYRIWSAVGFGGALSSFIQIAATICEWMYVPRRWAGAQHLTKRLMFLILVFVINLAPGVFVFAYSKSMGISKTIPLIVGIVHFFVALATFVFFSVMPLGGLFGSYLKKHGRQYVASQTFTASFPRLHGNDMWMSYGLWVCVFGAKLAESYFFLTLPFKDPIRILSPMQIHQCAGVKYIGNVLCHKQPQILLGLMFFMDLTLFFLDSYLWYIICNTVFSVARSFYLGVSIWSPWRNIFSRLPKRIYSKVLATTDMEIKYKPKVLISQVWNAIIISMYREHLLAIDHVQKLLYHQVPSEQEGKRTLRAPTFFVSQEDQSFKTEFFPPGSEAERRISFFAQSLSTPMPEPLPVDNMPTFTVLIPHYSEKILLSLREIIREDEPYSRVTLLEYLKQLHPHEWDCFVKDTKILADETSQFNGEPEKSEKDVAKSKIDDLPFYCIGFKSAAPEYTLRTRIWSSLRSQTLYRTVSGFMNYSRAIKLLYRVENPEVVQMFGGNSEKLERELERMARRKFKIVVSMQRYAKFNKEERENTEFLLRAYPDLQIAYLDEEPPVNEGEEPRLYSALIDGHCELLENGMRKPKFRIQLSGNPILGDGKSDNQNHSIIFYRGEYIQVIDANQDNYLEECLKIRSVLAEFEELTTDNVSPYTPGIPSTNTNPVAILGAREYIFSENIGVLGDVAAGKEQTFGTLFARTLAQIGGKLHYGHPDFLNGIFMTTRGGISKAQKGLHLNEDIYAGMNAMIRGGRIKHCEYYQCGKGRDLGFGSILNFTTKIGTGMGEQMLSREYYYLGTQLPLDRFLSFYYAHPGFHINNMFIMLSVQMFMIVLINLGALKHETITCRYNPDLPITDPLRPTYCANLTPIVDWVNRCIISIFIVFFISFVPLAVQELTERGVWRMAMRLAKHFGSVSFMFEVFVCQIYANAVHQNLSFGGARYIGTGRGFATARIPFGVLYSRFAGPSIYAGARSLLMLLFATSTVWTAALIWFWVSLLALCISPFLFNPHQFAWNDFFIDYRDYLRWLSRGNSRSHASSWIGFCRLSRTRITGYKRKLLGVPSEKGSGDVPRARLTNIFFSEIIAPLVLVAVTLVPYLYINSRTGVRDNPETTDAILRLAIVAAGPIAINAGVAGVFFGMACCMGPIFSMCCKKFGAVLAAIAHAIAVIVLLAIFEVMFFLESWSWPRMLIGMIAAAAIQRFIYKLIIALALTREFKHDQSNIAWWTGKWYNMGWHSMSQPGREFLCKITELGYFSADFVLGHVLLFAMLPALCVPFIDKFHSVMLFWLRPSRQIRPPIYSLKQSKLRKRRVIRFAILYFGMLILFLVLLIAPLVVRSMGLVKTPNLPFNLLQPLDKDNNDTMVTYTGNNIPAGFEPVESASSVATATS

For orientation: IC50 means the midpoint of a concentration-inhibition curve. Regarding `CCC(C)CC(C)CCCCCCCCC(=O)N[C@H]1C[C@@H](O)[C@@H](NCCN)NC(=O)[C@@H]2[C@@H](O)CCN2C(=O)[C@H]([C@H](O)CCN)NC(=O)[C@H]([C@H](O)[C@@H](O)c2ccc(O)cc2)NC(=O)[C@@H]2C[C@@H](O)CN2C(=O)[C@H]([C@@H](C)O)NC1=O` (stereo partly specified) [CHEBI:474180], the IC50 stood at 110 nM.

(Values after BindingDB's records for doi:10.1128/aac.00917-07 (Umdnj-New Jersey Medical School, 2007).)
